Measurements: the CheMixHub ionic liquid set

Experiment: xn = mol fraction of the nth substance listed

CCCOCCO + COS(=O)(=O)[O-].Cn1cc[n+](C)c1
viscosity [mPa·s], 101 kPa
Details	x2 = 0.00104	x2 = 0.002597	x2 = 0.004149	x2 = 0.005696	x2 = 0.007238	x2 = 0.008775
293.15 K	2.6	2.63	2.65	2.67	2.7	2.73
303.15 K	2.15	2.18	2.21	2.24	2.27	2.29
313.15 K	1.81	1.84	1.88	1.91	1.95	1.99

CCCC[N+]1(C)CCCC1.N#C[N-]C#N + CCCC[N+]1(C)CCCC1.O=S(=O)([N-]S(=O)(=O)C(F)(F)F)C(F)(F)F
101 kPa, frequency 0 MHz, x2 = 0.5
Details	electrical conductivity [S/m]
318 K	0.962
323 K	1.12

101 kPa, x2 = 0.5
Details	viscosity [mPa·s]
318 K	22.7
323 K	19.7

O + CCCCCCCC[n+]1ccc(C)cc1.[Br-]
100 kPa, frequency 0.003 MHz, x2 = 0
Details	electrical conductivity [S/m]
288.15 K	0.0001
308.15 K	0.00022

CC[n+]1ccn(C)c1.N#C[N-]C#N + CC[n+]1ccn(C)c1.N#C[S-]
100 kPa
Details	electrical conductivity [S/m]	viscosity [mPa·s]
298.15 K, x2 = 0.2585	2.68	16.36
308.15 K, x2 = 0.2585	3.45	12.4
318.15 K, x2 = 0	4.52	8.93
318.15 K, x2 = 0.7603	4.01	11.79
323.15 K, x2 = 0.5112	4.62	9.51
328.15 K, x2 = 0.2585	–	7.87
333.15 K, x2 = 0	–	6.37
338.15 K, x2 = 0.2585	–	6.49
348.15 K, x2 = 0.5112	–	5.87
353.15 K, x2 = 0.7603	–	5.7

CCCC[n+]1ccn(C)c1.F[B-](F)(F)F + Cc1ccccc1
viscosity [mPa·s], 101 kPa
Details	x2 = 0.05	x2 = 0.1	x2 = 0.2	x2 = 0.3	x2 = 0.33
298.15 K	80.4	74.5	59.9	47.9	44.8
300.65 K	54.8	50.7	39.3	29.3	27.8
303.15 K	41.3	38.1	29.2	21.6	20.46
305.65 K	33.3	30.6	23.5	17.49	16.56
308.15 K	28	25.7	19.89	15	14.18
310.65 K	24.4	22.36	17.41	13.35	12.59
313.15 K	21.75	19.9	15.63	12.18	11.46
315.65 K	19.74	18.04	14.3	11.31	10.62
318.15 K	18.18	16.59	13.26	10.64	9.97
320.65 K	16.93	15.43	12.44	10.11	9.46
323.15 K	15.91	14.49	11.76	9.68	9.05
325.65 K	15.07	13.71	11.21	9.32	8.7
328.15 K	14.36	13.05	10.74	9.02	8.41
330.65 K	13.75	12.48	10.35	8.77	8.17
333.15 K	13.23	12	10	8.55	7.96
335.65 K	12.77	11.58	9.7	8.36	7.77
338.15 K	12.37	11.21	9.44	8.19	7.61
